Laboratory results: ChEMBL document CHEMBL3797052 (Eur J Med Chem, 2016)

How the values were obtained:
[1] = Antiproliferative activity against human MOLT4 cells assessed as cell growth at 10^-7 M after 48 hrs by sulforhodamine B assay; type: functional; settings: MOLT-4, 48 h, read-out: Activity
CCRF-CEM = test: Antiproliferative activity against human CCRF-CEM cells assessed as cell growth at 10^-5 M after 48 hrs by sulforhodamine B assay; type: functional; settings: read-out: Activity
[2] = Antiproliferative activity against human HL-60(TB) cells assessed as cell growth at 10^-5 M after 48 hrs by sulforhodamine B assay; type: functional; settings: HL-60, 48 h, read-out: Activity
K562 = test: Antiproliferative activity against human K562 cells assessed as cell growth at 10^-5 M after 48 hrs by sulforhodamine B assay; type: functional; settings: K562, 48 h, read-out: Activity
[3] = Antiproliferative activity against human RPMI8226 cells assessed as cell growth at 10^-5 M after 48 hrs by sulforhodamine B assay; type: functional; settings: RPMI-8226, 48 h, read-out: Activity
A549 = test: Antiproliferative activity against human A549/ATCC cells assessed as cell growth at 10^-5 M after 48 hrs by sulforhodamine B assay; type: functional; settings: A549, 48 h, read-out: Activity
[4] = Antiproliferative activity against human HOP62 cells assessed as cell growth at 10^-5 M after 48 hrs by sulforhodamine B assay; type: functional; settings: HOP-62, 48 h, read-out: Activity
NCI-H460 = test: Antiproliferative activity against human NCI-H460 cells assessed as cell growth at 10^-5 M after 48 hrs by sulforhodamine B assay; type: functional; settings: NCI-H460, 48 h, read-out: Activity
NCI-H522 = test: Antiproliferative activity against human NCI-H522 cells assessed as cell growth at 10^-5 M after 48 hrs by sulforhodamine B assay; type: functional; settings: NCI-H522, 48 h, read-out: Activity
[5] = Antiproliferative activity against human COLO205 cells assessed as cell growth at 10^-5 M after 48 hrs by sulforhodamine B assay; type: functional; settings: COLO 205, 48 h, read-out: Activity
[6] = Antiproliferative activity against human HCC2998 cells assessed as cell growth at 10^-5 M after 48 hrs by sulforhodamine B assay; type: functional; settings: HCC 2998, 48 h, read-out: Activity
HT-29 [7] = test: Antiproliferative activity against human HT-29 cells assessed as cell growth at 10^-5 M after 48 hrs by sulforhodamine B assay; type: functional; settings: HT-29, 48 h, read-out: Activity
U-251 = test: Antiproliferative activity against human U251 cells assessed as cell growth at 10^-5 M after 48 hrs by sulforhodamine B assay; type: functional; settings: U-251, 48 h, read-out: Activity
[8] = Antiproliferative activity against human UACC62 cells assessed as growth inhibition after 48 hrs by sulforhodamine B assay; type: functional; settings: UACC-62, 48 h; for CC50: read-out: LC50 (the source's name)
SK-MEL-5 = test: Antiproliferative activity against human SK-MEL-5 cells assessed as cell growth at 10^-7 M after 48 hrs by sulforhodamine B assay; type: functional; settings: SK-MEL-5, 48 h, read-out: Activity
[9] = Antiproliferative activity against human Hs 578T cells assessed as cell growth at 10^-7 M after 48 hrs by sulforhodamine B assay; type: functional; settings: read-out: Activity
MDA-MB-435 = test: Antiproliferative activity against human MDA-MB-435 cells assessed as cell growth at 10^-5 M after 48 hrs by sulforhodamine B assay; type: functional; settings: MDA-MB-435, 48 h, read-out: Activity
SK-MEL-2 = test: Antiproliferative activity against human SK-MEL-2 cells assessed as cell growth at 10^-5 M after 48 hrs by sulforhodamine B assay; type: functional; settings: SK-MEL-2, 48 h, read-out: Activity
[10] = Antiproliferative activity against human UACC62 cells assessed as cell growth at 10^-5 M after 48 hrs by sulforhodamine B assay; type: functional; settings: UACC-62, 48 h, read-out: Activity
[11] = Antiproliferative activity against human OVCAR3 cells assessed as cell growth at 10^-5 M after 48 hrs by sulforhodamine B assay; type: functional; settings: OVCAR-3, 48 h, read-out: Activity
[12] = Antiproliferative activity against human OVCAR4 cells assessed as cell growth at 10^-5 M after 48 hrs by sulforhodamine B assay; type: functional; settings: OVCAR-4, 48 h, read-out: Activity
[13] = Antiproliferative activity against human OVCAR8 cells assessed as cell growth at 10^-5 M after 48 hrs by sulforhodamine B assay; type: functional; settings: OVCAR-8, 48 h, read-out: Activity
[14] = Antiproliferative activity against human NCI-ADR-RES cells assessed as cell growth at 10^-5 M after 48 hrs by sulforhodamine B assay; type: functional; settings: read-out: Activity
[15] = Antiproliferative activity against human SKOV3 cells assessed as cell growth at 10^-5 M after 48 hrs by sulforhodamine B assay; type: functional; settings: SK-OV-3, 48 h, read-out: Activity
[16] = Antiproliferative activity against human TK10 cells assessed as cell growth at 10^-5 M after 48 hrs by sulforhodamine B assay; type: functional; settings: TK-10, 48 h, read-out: Activity
[17] = Antiproliferative activity against human UO31 cells assessed as cell growth at 10^-5 M after 48 hrs by sulforhodamine B assay; type: functional; settings: UO-31, 48 h, read-out: Activity
[18] = Antiproliferative activity against human PC3 cells assessed as cell growth at 10^-5 M after 48 hrs by sulforhodamine B assay; type: functional; settings: PC-3, 48 h, read-out: Activity
MDA-MB-231 = test: Antiproliferative activity against human MDA-MB-231 cells assessed as cell growth at 10^-5 M after 48 hrs by sulforhodamine B assay; type: functional; settings: MDA-MB-231, 48 h, read-out: Activity
[19] = Antiproliferative activity against human SF295 cells assessed as growth inhibition after 48 hrs by sulforhodamine B assay; type: functional; settings: SF-295, 48 h; for CC50: read-out: LC50 (the source's name)
[20] = test system: Serine/threonine-protein kinase B-raf (Homo sapiens), P15056 [V600E]; test: Inhibition of BRAF V600E mutant (unknown origin) at 10 uM measured after 40 mins by scintillation counting
[21] = Antiproliferative activity against human SNB75 cells assessed as cell growth at 10^-8 M after 48 hrs by sulforhodamine B assay; type: functional; settings: SNB-75, 48 h, read-out: Activity
Malme-3M = test: Antiproliferative activity against human MALME-3M cells assessed as cell growth at 10^-8 M after 48 hrs by sulforhodamine B assay; type: functional; settings: read-out: Activity
HT-29 [22] = test: Antiproliferative activity against human HT-29 cells assessed as cell growth at 10^-6 M after 48 hrs by sulforhodamine B assay; type: functional; settings: HT-29, 48 h, read-out: Activity
T47D = test: Antiproliferative activity against human T47D cells assessed as cell growth at 10^-5 M after 48 hrs by sulforhodamine B assay; type: functional; settings: read-out: Activity
[23] = Antiproliferative activity against human SF268 cells assessed as cell growth at 10^-4 M after 48 hrs by sulforhodamine B assay; type: functional; settings: SF-268, 48 h, read-out: Activity
[24] = Antiproliferative activity against human LOXIMVI cells assessed as cell growth at 10^-5 M after 48 hrs by sulforhodamine B assay; type: functional; settings: LOX IMVI, read-out: Activity

Sequence of Serine/threonine-protein kinase B-raf (Homo sapiens), P15056 [V600E] (P15056 whole entry V600E): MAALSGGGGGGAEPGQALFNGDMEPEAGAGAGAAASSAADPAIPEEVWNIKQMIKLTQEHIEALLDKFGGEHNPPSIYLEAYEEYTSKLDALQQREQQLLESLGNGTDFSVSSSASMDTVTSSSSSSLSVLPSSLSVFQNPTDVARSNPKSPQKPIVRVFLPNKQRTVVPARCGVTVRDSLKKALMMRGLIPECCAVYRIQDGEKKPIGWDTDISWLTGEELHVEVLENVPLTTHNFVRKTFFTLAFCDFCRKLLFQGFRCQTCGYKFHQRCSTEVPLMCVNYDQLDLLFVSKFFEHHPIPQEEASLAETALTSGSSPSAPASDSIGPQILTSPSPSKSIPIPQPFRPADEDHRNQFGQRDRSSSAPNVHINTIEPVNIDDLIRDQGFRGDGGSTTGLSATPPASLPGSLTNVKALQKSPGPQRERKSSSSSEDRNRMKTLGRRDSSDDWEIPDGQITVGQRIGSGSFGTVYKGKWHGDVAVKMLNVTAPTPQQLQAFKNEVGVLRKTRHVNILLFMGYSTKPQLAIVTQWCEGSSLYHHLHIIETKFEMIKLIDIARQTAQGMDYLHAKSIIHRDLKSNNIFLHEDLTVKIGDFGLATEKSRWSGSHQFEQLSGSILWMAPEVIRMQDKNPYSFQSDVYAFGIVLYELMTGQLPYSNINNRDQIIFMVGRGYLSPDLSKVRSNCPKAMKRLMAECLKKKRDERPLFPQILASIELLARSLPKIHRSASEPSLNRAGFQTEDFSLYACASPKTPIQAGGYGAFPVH

For `CNC(=O)c1cc(Oc2ccc3nc(NC(=O)Nc4ccc(Cl)c(C(F)(F)F)c4)sc3c2)ccn1`, the growth at 0.1 µM [1] was 105%, the growth at 10 µM (CCRF-CEM) was 22% and the growth at 10 µM [2] was 52%. It also gave a growth at 10 µM (K562) of 32%, a growth at 10 µM [3] of -10% and a growth at 10 µM (A549) of -50%. It also gave a growth at 10 µM [4] of -42%, a growth at 10 µM (NCI-H460) of -57% and a growth at 10 µM (NCI-H522) of 6%. For the same compound, the growth at 10 µM [5] was -11%, the growth at 10 µM [6] was 20% and the growth at 10 µM (HT-29 [7]) was 5%. It also gave a growth at 10 µM (U-251) of -66%, a GI50 [8] of 2.06 µM and a CC50 [8] greater than 100 µM. For the same compound, the growth at 0.1 µM (SK-MEL-5) was 95%, the growth at 0.1 µM [9] was 89% and the growth at 10 µM (MDA-MB-435) was -36%. The growth at 10 µM (SK-MEL-2) was 37%, the growth at 10 µM [10] was -22% and the growth at 10 µM [11] was -70%. For the same compound, the growth at 10 µM [12] was -75%, the growth at 10 µM [13] was -40% and the growth at 10 µM [14] was -21%. For the same compound, the growth at 10 µM [15] was -54%, the growth at 10 µM [16] was -55% and the growth at 10 µM [17] was -54%. The growth at 10 µM [18] was -67%, the growth at 10 µM (MDA-MB-231) was -38% and the GI50 [19] was 1.79 µM. The TGI [19] was 3.71 µM, the CC50 [19] was 7.66 µM and the inhibition [20] was 55.1%. For the same compound, the growth at 0.01 µM [21] was 79%, the growth at 0.01 µM (Malme-3M) was 104% and the growth at 1 µM (HT-29 [22]) was 91%. It also gave a growth at 10 µM (T47D) of -34% and a growth at 100 µM [23] of -5%.
Compound `CNC(=O)c1cc(Oc2ccc3nc(NC(=O)Nc4ccc(Cl)c(Cl)c4)sc3c2)ccn1` has a growth at 0.1 µM [1] of 96%, a growth at 10 µM (CCRF-CEM) of 76% and a growth at 10 µM [2] of 95%. The growth at 10 µM (K562) was 55%, the growth at 10 µM [3] was 9% and the growth at 10 µM (A549) was -62%. It also gave a growth at 10 µM [4] of -79%, a growth at 10 µM (NCI-H460) of -40% and a growth at 10 µM (NCI-H522) of 20%. For the same compound, the growth at 10 µM [5] was 16%, the growth at 10 µM [6] was 29% and the growth at 10 µM (HT-29 [7]) was -61%. It also gave a growth at 10 µM (U-251) of -84%, a growth at 10 µM [24] of -79% and a GI50 [8] of 2.32 µM. It also gave a TGI [8] of 7.76 µM, a CC50 [8] greater than 100 µM and a growth at 0.1 µM (SK-MEL-5) of 100%. For the same compound, the growth at 0.1 µM [9] was 108%, the growth at 10 µM (MDA-MB-435) was -47% and the growth at 10 µM (SK-MEL-2) was -30%. It also gave a growth at 10 µM [10] of -11%, a growth at 10 µM [11] of -37% and a growth at 10 µM [12] of -68%. For the same compound, the growth at 10 µM [13] was -40%, the growth at 10 µM [14] was -43% and the growth at 10 µM [15] was -74%. It also gave a growth at 10 µM [16] of -4%, a growth at 10 µM [17] of -72% and a growth at 10 µM [18] of -53%. It also gave a growth at 10 µM (MDA-MB-231) of -20%, a GI50 [19] of 1.53 µM and a TGI [19] of 3.13 µM. The CC50 [19] was 6.41 µM, the inhibition [20] was 67.6% and the growth at 0.01 µM [21] was 76%. The growth at 0.01 µM (Malme-3M) was 97%, the growth at 1 µM (HT-29 [22]) was 106% and the growth at 10 µM (T47D) was -26%. For the same compound, the growth at 100 µM [23] was -57%.
